From patent US20080009025A1, “PROTEIN KINASE REGULATION” (priority 1999, published 2008)
Where a SMILES comes first, the peptide text is derived from it.

Experiments:
PDK1-wt = molecular target: T1, PDK1-wt (Homo sapiens, UniProt O15530); assay: Phosphorylation of AGC kinase substrates by PDK1 (32P, PhosphoImager); type: biochemical; details: hydrophobic motif Phe to Ala mutants
T1 construct: made in house; host or cells: human embryonic kidney 293 cells
T1 sequence (O15530 1-556): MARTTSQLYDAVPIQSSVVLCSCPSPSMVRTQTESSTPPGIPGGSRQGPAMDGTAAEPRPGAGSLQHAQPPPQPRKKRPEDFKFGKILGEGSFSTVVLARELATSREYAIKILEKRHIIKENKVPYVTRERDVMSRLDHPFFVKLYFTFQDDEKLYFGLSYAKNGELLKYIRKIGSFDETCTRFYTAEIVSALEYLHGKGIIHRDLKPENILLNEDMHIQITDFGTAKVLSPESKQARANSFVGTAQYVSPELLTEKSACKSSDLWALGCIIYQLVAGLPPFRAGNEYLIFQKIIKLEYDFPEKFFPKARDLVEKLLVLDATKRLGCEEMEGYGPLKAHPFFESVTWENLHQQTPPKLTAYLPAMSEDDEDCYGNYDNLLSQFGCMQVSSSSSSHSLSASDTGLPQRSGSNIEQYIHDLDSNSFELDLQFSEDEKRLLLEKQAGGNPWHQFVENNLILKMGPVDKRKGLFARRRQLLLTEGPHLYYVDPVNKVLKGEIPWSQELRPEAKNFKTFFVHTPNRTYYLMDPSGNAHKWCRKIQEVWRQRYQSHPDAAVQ
Procedure: Phosphorylation of AGC kinase substrates by PDK1. The phosphorylation of PDK1 substrates was performed in a final volume of 20 μl in a buffer containing 50 mM Tris-HCl pH 7.5, 0.1% (by vol) 2-mercaptoethanol, 10 mM magnesium chloride, 100 μM [γ-^32P]ATP (˜1000 c.p.m./pmol), 0.5 μM microcystin-LR, 0.6 μM AGC kinase substrate and 0.6 to 30 nM wild type PDK1 or the indicated mutant of PDK1.
Relative phosphorylation of PDK1 substrates. PDK1 substrates were phosphorylated in vitro, subjected to SDS-PAGE, and radioactivity associated with the bands measured using a Phospho-Imager and known amounts of ATP as standard. The phosphorylation rate of PKB[S473D] in the presence of PtdIns (3,4,5)P3 was 2.6 mol/mol PDK1/min and was taken as the relative value of 100. Average values from a representative experiment performed in duplicates are shown.

PDK1 = assay: Activation of AGC kinase substrates by PDK1 (Crosstide assay); type: biochemical, human; details: for inhibition of the activation of S6K1-T2[T412E] and SGK1[T422D] by PDK1 PIF pocket mutants: PDK1[K115A], [I119A], [Q150A], [L155A]
Procedure: FIG. 20. Effect of PIFtide on the activation of S6K1 and SGK1 by PDK1 PIF pocket mutants (155A, 115A, 119A, 150A). GST-PDK1, GST-PDK1 L155E, 155A, 115A, 119A and 150A were tested for their ability to activate His-S6K1 412E and GST-SGK1 422D. The phosphorylation and activation of substrates was performed as described in FIG. 17. When PIFtide was included in the reaction, it was pre-incubated on ice for ˜15 min until the reaction was initiated with the addition of ATP-Mg.
Activation of AGC kinase PDK1 substrates. Phosphorylation reactions were carried out as above except that non-radioactive ATP replaced [γ-^32P]ATP. Following 10 min at 30° C., cocktail (30 μl) containing 50 mM Tris-HCl pH 7.5, 0.1% (by vol) 2-mercaptoethanol, 10 mM magnesium chloride, […], 0.5 μM microcystin-LR and 100 μM peptide substrate crosstide (GRPRTSSFAEG) and [γ-^32P]ATP (˜600 c.p.m./pmol). Reactions were stopped by the addition of 25 μl of 0.2 M EDTA pH 8.0, spotted onto P81 phosphocellulose paper, washed and analysed as described for the assay of MAP kinase. The amount of PDK1 was in the assay was varied so that the assay was in the linear range. One unit of activity is deficed as phosphorylation 1 nmol of substrate in 1 min.

PKBα = assay: IGF1-induced activation and Ser473 phosphorylation of HA-PKBα in co-transfected 293 cells; type: cell-based, human
Procedure: FIG. 4. […] 293 cells were co-transfected with constructs expressing the wild type full length HA-PKBα with either GST-PIF or GST. 24 h post transfection the cells were serum starved for 16 h and then stimulated for 15 min with 100 nM IGF1. The cells were lysed and HA-PKBα was immunoprecipitated and assayed as described in Methods. Protein from each lysate (10 μg) was electrophoresed on a 10% SDS/polyarylamide gel and immunoblotted using HA-antibody or the S473-P antibody. The HA-PKBα activities shown are the averages ±SEM for a single experiment carried out in triplicate, similar results were obtained in 3 separate experiments.
293 cells cultured on 10 cm diameter dishes in Dulbecco's Modified Eagle's Medium containing 10% (by vol) foetal bovine serum, were transfected with 2 μg of DNA construct encoding either wild type or mutant HA-p70 S6K or HA-PKBα, and 10 μg of DNA construct encoding either GST-PIF, GST-F977A-PIF, GST, Myc-PDK1, kinase-dead Myc-PDK1, or the empty pCMV5 vector using a modified calcium phosphate method. 24 h post transfection the cells were deprived of serum for 16 h, and exposed to IGF1 (100 nM) for the time indicated. […] The protein concentrations of the lysates were determined by the Bradford method. […]

Row | Compound | basal rate at which PDK1 phosphorylated S6K1[F411A], SGK1[F421A] and ΔPH-PKBα[F472A] (PDK1-wt) | inhibition of the activation of S6K1[T412E] by wild type PDK1 (PDK1; 2 μM PIFtide) [fold] | inhibition of the activation of S6K1-T2[T412E] and SGK1[T422D] by PDK1 PIF pocket mutants (PDK1; 2 μM PIFtide) [%] | inhibition of the activation of S6K1-T2[T412E] and SGK1[T422D] by PDK1 PIF pocket mutants (PDK1; 35 μM PIFtide) | PDK1's ability to phosphorylate and activate SGK1, ΔPH-PKBα, S6K1[T412E], SGK1[T422D] and ΔPH-PKBα[S473D] (PDK1; in the presence of PIFtide) | IGF1-induced phosphorylation of HA-PKBα at Ser473 (PKBα)
1 | CC[C@H](C)[C@H](NC(=O)[C@H](Cc1ccc(O)cc1)NC(=O)[C@H](CC(=O)O)NC(=O)[C@H](Cc1ccccc1)NC(=O)[C@H](CC(=O)O)NC(=O)[C@H](CCCNC(=N)N)NC(=O)[C@H](Cc1ccccc1)NC(=O)[C@H](CCSC)NC(=O)[C@H](CCC(=O)O)NC(=O)[C@H](CCC(N)=O)NC(=O)[C@H](CCC(=O)O)NC(=O)[C@H](CCC(=O)O)NC(=O)[C@H](CCC(=O)O)NC(=O)[C@H](CO)NC(=O)[C@H](CC(C)C)NC(=O)[C@@H](NC(=O)[C@H](CCCNC(=N)N)NC(=O)[C@@H]1CCCN1C(=O)[C@H](CCC(=O)O)NC(=O)[C@@H](N)CCCNC(=N)N)[C@@H](C)CC)C(=O)N[C@@H](C)C(=O)N[C@@H](CC(=O)O)C(=O)N[C@@H](Cc1c[nH]c2ccccc12)C(=O)N[C@@H](CS)C(=O)O [PIFtide] (H-REPRILSEEEQEMFRDFDYIADWC-OH; N-terminus and C-terminus assumed) | not inhibited | > 20 | ~50 | over 95% | markedly inhibited | 
2 | GST-PIF: glutathione S-transferase fused to the last 77 residues of PRK2 (PIF) |  |  |  |  |  | did not inhibit or potentiate
